Laboratory results as given in ChEMBL document CHEMBL2434943, “Elaboration of thorough simplified vinca alkaloids as antimitotic agents based on pharmacophore similarity” (Eur J Med Chem, 2013).
The source made the active and inactive calls. The calls are words filed in the database; no cut-off is given here.

Legend:
HepG2 [1] = assay: Cytotoxicity against human HepG2 cells assessed as growth inhibition after 72 hrs by MTT assay; type: functional, cell-based; conditions: HepG2, 72 h
[2] = Cytotoxicity against KM mouse splenic lymphocytes assessed as growth inhibition after 72 hrs by MTT assay; conditions: Splenic lymphocyte
MCF7 [3] = assay: Cytotoxicity against human MCF7 cells assessed as growth inhibition after 72 hrs by MTT assay; type: functional, cell-based; conditions: MCF7, 72 h
HepG2 [4] = assay: Cell cycle arrest in human HepG2 cells assessed as accumulation at G0/G1 phase at 10 uM after 48 hrs by propidium iodide staining-based flow cytometric analysis (reference value: 65.9%); type: functional
HepG2 [5] = assay: Cell cycle arrest in human HepG2 cells assessed as accumulation at G0/G1 phase at 3 uM after 48 hrs by propidium iodide staining-based flow cytometric analysis (reference value: 65.9%); type: functional
HepG2 [6] = assay: Cell cycle arrest in human HepG2 cells assessed as accumulation at subG1 phase at 5 uM after 48 hrs by propidium iodide staining-based flow cytometric analysis (reference value: 1.2%); type: functional
HepG2 [7] = assay: Cell cycle arrest in human HepG2 cells assessed as accumulation at S phase at 5 uM after 48 hrs by propidium iodide staining-based flow cytometric analysis (reference value: 10.5%); type: functional
HepG2 [8] = assay: Cell cycle arrest in human HepG2 cells assessed as accumulation at G2/M phase at 3 uM after 48 hrs by propidium iodide staining-based flow cytometric analysis (reference value: 22.4%); type: functional
HepG2 [9] = assay: Cell cycle arrest in human HepG2 cells assessed as accumulation at S phase at 3 uM after 48 hrs by propidium iodide staining-based flow cytometric analysis (reference value: 10.5%); type: functional
MCF7 [10] = assay: Cell cycle arrest in human MCF7 cells assessed as accumulation at subG1 phase at 5 uM after 36 hrs by propidium iodide staining-based flow cytometric analysis (reference value: 1.2%); type: functional
MCF7 [11] = assay: Cell cycle arrest in human MCF7 cells assessed as accumulation at subG1 phase at 3 uM after 36 hrs by propidium iodide staining-based flow cytometric analysis (reference value: 1.2%); type: functional
MCF7 [12] = assay: Cell cycle arrest in human MCF7 cells assessed as accumulation at G2/M phase at 3 uM after 36 hrs by propidium iodide staining-based flow cytometric analysis (reference value: 19%); type: functional
MCF7 [13] = assay: Cell cycle arrest in human MCF7 cells assessed as accumulation at G0/G1 phase at 5 uM after 36 hrs by propidium iodide staining-based flow cytometric analysis (reference value: 67.3%); type: functional
HepG2 [14] = assay: Cell cycle arrest in human HepG2 cells assessed as accumulation at G2/M phase at 10 uM after 48 hrs by propidium iodide staining-based flow cytometric analysis (reference value: 22.4%); type: functional
MCF7 [15] = assay: Cell cycle arrest in human MCF7 cells assessed as accumulation at G0/G1 phase at 1 uM after 36 hrs by propidium iodide staining-based flow cytometric analysis (reference value: 67.3%); type: functional
HepG2 [16] = assay: Cell cycle arrest in human HepG2 cells assessed as accumulation at subG1 phase at 3 uM after 48 hrs by propidium iodide staining-based flow cytometric analysis (reference value: 1.2%); type: functional
MCF7 [17] = assay: Cell cycle arrest in human MCF7 cells assessed as accumulation at G2/M phase at 5 uM after 36 hrs by propidium iodide staining-based flow cytometric analysis (reference value: 19%); type: functional
K562 = assay: Cytotoxicity against human K562 cells assessed as growth inhibition after 72 hrs by MTT assay; type: functional, cell-based; conditions: K562, 72 h
MCF7 [18] = assay: Cell cycle arrest in human MCF7 cells assessed as accumulation at S phase at 5 uM after 36 hrs by propidium iodide staining-based flow cytometric analysis (reference value: 12.5%); type: functional
HepG2 [19] = assay: Cytotoxicity against adriamycin-resistant human HepG2 cells assessed as growth inhibition after 72 hrs by MTT assay; type: functional, cell-based; conditions: HepG2, 72 h
MCF7 [20] = assay: Cell cycle arrest in human MCF7 cells assessed as accumulation at G0/G1 phase at 3 uM after 36 hrs by propidium iodide staining-based flow cytometric analysis (reference value: 67.3%); type: functional
HepG2 [21] = assay: Antimitotic activity in human HepG2 cells assessed as disruption of microtubule network at 5 uM by DAPI staining-based laser scanning confocal microscopic analysis; type: functional, cell-based; conditions: TDE = time-dependent effect
MCF7 [22] = assay: Cell cycle arrest in human MCF7 cells assessed as accumulation at S phase at 3 uM after 36 hrs by propidium iodide staining-based flow cytometric analysis (reference value: 12.5%); type: functional
MCF7 [23] = assay: Cell cycle arrest in human MCF7 cells assessed as accumulation at G2/M phase at 1 uM after 36 hrs by propidium iodide staining-based flow cytometric analysis (reference value: 19%); type: functional
MCF7 [24] = assay: Cell cycle arrest in human MCF7 cells assessed as accumulation at S phase at 1 uM after 36 hrs by propidium iodide staining-based flow cytometric analysis (reference value: 12.5%); type: functional
HepG2 [25] = assay: Cell cycle arrest in human HepG2 cells assessed as accumulation at G0/G1 phase at 5 uM after 48 hrs by propidium iodide staining-based flow cytometric analysis (reference value: 65.9%); type: functional
HepG2 [26] = assay: Cell cycle arrest in human HepG2 cells assessed as accumulation at G2/M phase at 5 uM after 48 hrs by propidium iodide staining-based flow cytometric analysis (reference value: 22.4%); type: functional
HepG2 [27] = assay: Antimitotic activity in human HepG2 cells assessed as cell morphological changes at 5 uM after 3 to 12 hrs by DAPI staining-based laser scanning confocal microscopic analysis; type: functional
HepG2 [28] = assay: Cell cycle arrest in human HepG2 cells assessed as accumulation at subG1 phase at 10 uM after 48 hrs by propidium iodide staining-based flow cytometric analysis (reference value: 1.2%); type: functional
MCF7 [29] = assay: Cell cycle arrest in human MCF7 cells assessed as accumulation at subG1 phase at 1 uM after 36 hrs by propidium iodide staining-based flow cytometric analysis (reference value: 1.2%); type: functional
Tubulin (Homo sapiens) = Tubulin (Homo sapiens) (UniProt P68371+Q9H4B7+P0DPH7+P68366+Q13509+Q71U36+P04350+Q3ZCM7+P07437+P68363+Q9BQE3+Q6PEY2+Q13885+Q9BVA1+Q9BUF5); assay: Inhibition of tubulin polymerization (unknown origin) at 3 to 10 uM after 90 mins; type: protein-complex assay
MDA-MB-231 = assay: Cytotoxicity against human MDA-MB-231 cells assessed as growth inhibition after 72 hrs by MTT assay; type: functional, cell-based; conditions: MDA-MB-231, 72 h
HepG2 [30] = assay: Cell cycle arrest in human HepG2 cells assessed as accumulation at S phase at 10 uM after 48 hrs by propidium iodide staining-based flow cytometric analysis (reference value: 10.5%); type: functional

In the case of `CC1(C)C(/C=C/c2cccc([N+](=O)[O-])c2)=Nc2ccccc21`, the IC50 (HepG2 [1]) is reported as 5.04 µM, the IC50 [2] is reported as 18.8 µM and the IC50 (MCF7 [3]) is reported as 0.89 µM. For the same compound, the Activity (HepG2 [4]) was 36.8%, the Activity (HepG2 [5]) was 51.3% and the Activity (HepG2 [6]) was 3.5%. It also gave an Activity (HepG2 [7]) of 9.9%, an Activity (HepG2 [8]) of 37.6% and an Activity (HepG2 [9]) of 8.2%. For the same compound, the Activity (MCF7 [10]) was 21.4%, the Activity (MCF7 [11]) was 9.7% and the Activity (MCF7 [12]) was 39.7%. It also gave an Activity (MCF7 [13]) of 19.6%, an Activity (HepG2 [14]) of 52.1% and an Activity (MCF7 [15]) of 56.8%. For the same compound, the Activity (HepG2 [16]) was 2.9%, the Activity (MCF7 [17]) was 46.7% and the IC50 (K562) was 4.38 µM. The Activity (MCF7 [18]) was 12.3%, the IC50 (HepG2 [19]) was 2.27 µM and the Activity (MCF7 [20]) was 40.6%. For the same compound, the Activity (HepG2 [21]) was “tde”, the Activity (MCF7 [22]) was 10% and the Activity (MCF7 [23]) was 28%. It also gave an Activity (MCF7 [24]) of 14%, an Activity (HepG2 [25]) of 15.3% and an Activity (HepG2 [26]) of 71.3%. For the same compound, the Activity (HepG2 [27]) was “Active”, the Activity (HepG2 [28]) was 2.5% and the Activity (MCF7 [29]) was 1.2%. For the same compound, the inhibition (Tubulin (Homo sapiens)) was “Active”, the IC50 (MDA-MB-231) was 1.87 µM and the Activity (HepG2 [30]) was 8.6%.
